From patent US9517275B2, “Targeted therapy for the prevention of restenosis in the cardiovascular system” (Northwestern University, priority 2013, dated 2016)
Residues, ends and D or L forms follow the SMILES beside them. *: point of attachment. Lauroyl = CCCCCCCCCCCC(=O)*

Columns and labels:
[1] = Procedure: Adult male Sprague-Dawley rats weighing 350 to 400 g underwent midline neck incision with exposure of internal jugular vein. Targeted nanofiber 2.5 mg was dissolved in 1.0 mL of HBBS and injected within the internal jugular vein using 25 G needle. After complete injection, needle was withdrawn, pressure held at the injection site for 1 minute and the neck incision was closed. Rats were euthanized at 10, 15, 30, 60 min, 4, 16 hours, 4 and 6 days post injection and viscera (liver, lung, kidney and spleen) were harvested.
Carotid arteries and viscera were harvested after in-situ perfusion-fixation with PBS (250 mL) and placed in 2% paraformaldehyde overnight.

[2] = Small angle X-ray scattering (SAXS) of nanostructures; assay type: physicochemical
Procedure: Small angle X-ray scattering (SAXS) experiments were performed at the Advanced Photon Source, Argonne National Laboratory. The X-ray energy (15 keV) was selected using a double-crystal monochromator with a 30 mm offset. Samples were dissolved at a concentration of 5 mM in PBS and placed in 1.5 mm quartz capillary tubes. The typical incident X-ray flux on the sample was ˜1×10^12 photons/s with a 0.2×0.3 mm^2 collimator, and samples were exposed for 4 s. The 1D scattering profiles were obtained by azimuthal integration of the 2D patterns, with scattering from the capillaries and PBS buffer subtracted as background. Scattering profiles were then plotted on a relative scale as a function of the scattering vector q=(4π/λ) sin(θ/2), where θ is the scattering angle.

Compound | earliest time fluorescence present within the kidneys ([1]; 2.5 mg internal jugular vein) | fluorescence in the kidneys over time ([1]; 2.5 mg internal jugular vein) | fluorescence in the liver over time ([1]; 2.5 mg internal jugular vein) | latest time fluorescence present within the kidneys ([1]; 2.5 mg internal jugular vein) | fluorescence within the liver and kidneys ([1]; 2.5 mg internal jugular vein, 10 min to 6 days) | fluorescence in the brain, heart, intestine and lungs ([1]; any of the time points) | self-assembly by SAXS [2]
CCCCCCCCCCCC(=O)NCCCC[C@H](NC(=O)[C@@H](NC(=O)[C@@H](NC(=O)[C@H](C)NC(=O)[C@H](C)NC(=O)[C@H](CCCCN)NC(=O)[C@H](CCCCN)NC(=O)[C@H](CS)NC(=O)[C@H](CCCCN)NC(=O)[C@@H]1CCCN1C(=O)[C@H](CC(C)C)NC(=O)[C@H](Cc1c[nH]c2ccccc12)NC(=O)[C@@H](NC(=O)[C@H](CC(C)C)NC(=O)[C@@H](N)CCCCN)C(C)C)C(C)C)C(C)C)C(=O)O [targeted nanofiber, KLVWLPKCK2A2V2K(C12)] (H-KLVWLPKCKKAAVVK(Lauroyl)-OH; N-terminus and C-terminus assumed) | 10 min | increasing fluorescence | Decreasing fluorescence | 6 days | Fluorescence was observed | no fluorescence detected | 
KLWVLPKC |  |  |  |  |  |  | did not display any evidence of self-assembly
